Data as given in paper PMC9552234.

Assay: amide bond formation (macrolactamization of free amino acid tripeptides containing anthranilic acid), HATU (1.2 equiv), Et3N (1.2 equiv), high dilution
Settings: 10-membered ring, CH2Cl2, 3.0 mM, 0.0 °C, 2 steps

Work on CC(=O)N1c2ccccc2[C@H]2C[C@H]3C(=O)N[C@@H](C(C)C)C(=O)Nc4ccccc4C(=O)N3[C@H]21 (mixture of isomers) [endo-47 -> endo-48 (1 step, from exo/endo mixture)] yielded a ring closure, yield over several steps (from CC(=O)N1c2ccccc2[C@H]2C[C@@H](C(=O)N[C@H](C(=O)Nc3ccccc3C(=O)O)C(C)C)N[C@H]21, 1.0 h) of 19%.
CC(=O)N1c2ccccc2[C@@H]2C[C@H]3C(=O)N[C@@H](C(C)C)C(=O)Nc4ccccc4C(=O)N3[C@@H]21 (mixture of isomers) [exo-47 -> exo-48 (1 step, from exo/endo mixture)] gave a ring closure, yield over several steps (from CC(=O)N1c2ccccc2[C@@H]2C[C@@H](C(=O)N[C@H](C(=O)Nc3ccccc3C(=O)O)C(C)C)N[C@@H]21, 1.0 h) of 29%.
Compound CC(=O)n1cc(C[C@H]2NC(=O)c3ccccc3NC(=O)[C@H](C(C)C)NC2=O)c2ccccc21 [H-D-Trp(1-Ac)-Val-Abz(2)-OH] has a ring closure, yield over several steps (from CC(=O)n1cc(C[C@@H](N)C(=O)N[C@H](C(=O)Nc2ccccc2C(=O)O)C(C)C)c2ccccc21, 1.17 h) of 53%.
For CC(C)[C@@H]1NC(=O)[C@@H](Cc2cn(C(=O)OC(C)(C)C)c3ccccc23)NC(=O)c2ccccc2NC1=O [H-D-Trp(1-Boc)-Val-Abz(2)-OH], the ring closure, yield over several steps (from CC(C)[C@H](NC(=O)[C@H](N)Cc1cn(C(=O)OC(C)(C)C)c2ccccc12)C(=O)Nc1ccccc1C(=O)O, 0.83 h) was 56%.
Compound CC(=O)n1cc(C[C@@H]2NC(=O)c3ccccc3NC(=O)[C@H](C(C)C)NC2=O)c2ccccc21 [H-Trp(1-Ac)-Val-Abz(2)-OH] has a ring closure, yield over several steps (from CC(=O)n1cc(C[C@H](N)C(=O)N[C@H](C(=O)Nc2ccccc2C(=O)O)C(C)C)c2ccccc21) of 0%.
Work on C=CC(C)(C)[C@]12C[C@H]3C(=O)N[C@@H](C(C)C)C(=O)Nc4ccccc4C(=O)N3[C@H]1N(C(C)=O)c1ccccc12 [endo-69 -> L-Trp-endo-11 (slow addition; decomposition)] yielded a ring closure, yield over several steps (from C=CC(C)(C)[C@]12C[C@@H](C(=O)O)N(C(=O)c3ccccc3NC(=O)[C@@H](N)C(C)C)[C@H]1N(C(C)=O)c1ccccc12) of 0%.
C=CC(C)(C)[C@]12C[C@H]3C(=O)N[C@@H](C(C)C)C(=O)Nc4ccccc4C(=O)N3[C@H]1N(C(C)=O)c1ccccc12 [endo-75 -> L-Trp-endo-11 (incl. Boc removal)] showed a ring closure, yield over several steps (from C=CC(C)(C)[C@]12C[C@@H](C(=O)N[C@H](C(=O)Nc3ccccc3C(=O)O)C(C)C)N[C@H]1N(C(C)=O)c1ccccc12, 2.0 h) of 87%.
C=CC(C)(C)[C@@]12C[C@H]3C(=O)N[C@@H](C(C)C)C(=O)Nc4ccccc4C(=O)N3[C@@H]1N(C(C)=O)c1ccccc12 [exo-69 -> L-Trp-exo-11 (slow addition; trace)] gave a ring closure, yield over several steps (from C=CC(C)(C)[C@@]12C[C@@H](C(=O)O)N(C(=O)c3ccccc3NC(=O)[C@@H](N)C(C)C)[C@@H]1N(C(C)=O)c1ccccc12) of 0%.
With C=CC(C)(C)[C@@]12C[C@H]3C(=O)N[C@@H](C(C)C)C(=O)Nc4ccccc4C(=O)N3[C@@H]1N(C(C)=O)c1ccccc12 [exo-75 -> L-Trp-exo-11 (incl. Boc removal)] the ring closure, yield over several steps (from C=CC(C)(C)[C@@]12C[C@@H](C(=O)N[C@H](C(=O)Nc3ccccc3C(=O)O)C(C)C)N[C@@H]1N(C(C)=O)c1ccccc12, 1.5 h) was 97%.
